Source: patent US8329704B2, “Substituted pyrazinone derivatives for use in MCH-1 mediated diseases” (Janssen Pharmaceutica, N.V., priority 2005, dated 2012)
Counter-ions that a name gives are not always drawn.

Legend:
human MCH-1 receptor = target: T1, human MCH-1 receptor (Homo sapiens, UniProt Q99705); assay: Ca2+ mobilization experiment for the MCH-1 receptor (FLIPR), inhibition of MCH-induced Ca2+ mobilization; assay type: cell-based; conditions: CHO cells stably expressing human MCH-1 receptor, inhibition of MCH-induced Ca2+ response, read-out: MCH-1 pIC50 (converted)
T1 construct: expressed in transfected cells
T1 sequence (Q99705 whole entry): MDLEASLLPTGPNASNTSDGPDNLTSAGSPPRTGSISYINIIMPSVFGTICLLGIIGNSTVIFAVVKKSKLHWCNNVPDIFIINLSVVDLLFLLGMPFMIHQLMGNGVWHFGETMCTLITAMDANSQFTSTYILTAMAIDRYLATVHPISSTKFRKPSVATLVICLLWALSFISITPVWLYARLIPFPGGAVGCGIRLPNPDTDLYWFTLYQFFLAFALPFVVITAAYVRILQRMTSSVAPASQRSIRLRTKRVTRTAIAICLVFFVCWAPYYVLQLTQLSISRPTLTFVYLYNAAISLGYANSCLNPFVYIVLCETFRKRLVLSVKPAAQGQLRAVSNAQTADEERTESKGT
Experimental: The interaction of the compounds of Formula (I) with MCH-1 receptors was assessed in in vitro transient calcium (Ca^2+) mobilization assays in the fluorimetric imaging plate reader (FLIPR) format (Sullivan et al. 1999, Methods Mol Biol 114:125-133). In general, the natural agonist (MCH) is incubated with cells expressing the MCH-1 receptor, which elicits a concentration-dependent transient mobilization of Ca^2+ from internal stores. The interaction of the test compounds with the receptor is assessed in competition experiments. Various concentrations of the test compound are added to the incubation mixture containing the receptor-expressing cells and a submaximal concentration of MCH. The test compound in proportion to its antagonist potency and its concentration inhibits MCH-induced Ca^2+ mobilization.
Chinese Hamster ovary cells (CHO) stably expressing the human MCH-1 receptor are grown in a 1:1 mixture of Dulbecco's Modified Eagles Medium (DMEM) and HAM's F12 medium including Glutamax™ (Invitrogen), supplemented with 10% heat-inactivated fetal bovine serum and 400 μg/ml geneticin.
Twenty-four hours before the experiment, MCH-1 receptor-expressing CHO cells are seeded in 20 μl (5,000 cells per well) into 384-well black wall, clear bottom microtiter plates (Costar). On the day of the experiment, 20 μl per well calcium assay kit containing 10 mM probenicide (Molecular Devices) is added. Cells are loaded for 90 min at 37° C. and 5% CO2 in a cell culture incubator. After loading, 20 μl of serial dilutions of the test compound are added and cells are further incubated for 20 min at room temperature in the dark. After 20 min, 20 μl of a submaximal MCH concentration is added and changes in intracellular calcium are recorded directly in a FLIPR III apparatus (Molecular devices).
Data from assays in the presence of compound were calculated as a percentage of total Ca^2+-responses measured in the absence of test compound. Inhibition curves, plotting percent of total Ca^2+-responses versus the log value of the concentration of the test compound, were automatically generated, and sigmoidal inhibition curves were fitted using non-linear regression. The pIC50 values of test compounds were derived from individual curves.

CC(=O)N(C)CCOc1ccc(-n2ccnc(NCCOc3ccccc3)c2=O)cc1 [1-30]
IC50 (human MCH-1 receptor): 501 nM
melting point: 105.9 °C

COc1cc(-n2ccnc(SCCc3ccccc3)c2=O)ccc1N1CCC(N(C)C)C1 (stereo not drawn) [6-07]
IC50 (human MCH-1 receptor): 20 nM
melting point: 126.5 °C

O=c1c(NCCc2ccccc2)nccn1CCc1ccc(CN2CCCC2)cc1 [9-01]
IC50 (human MCH-1 receptor): 20 nM
melting point: 177 °C

O=c1c(NCCc2ccccc2)nccn1-c1ccc(OCCN2CCC(O)CC2)c(Cl)c1 [3-81]
IC50 (human MCH-1 receptor): 25.1 nM
melting point: 151.2 °C

COc1cc(-n2ccnc(NCCOc3ccccc3)c2=O)ccc1OCCN1CCC(F)CC1 (as salt: HCl) [1-70]
melting point: 234.9 °C

CNC1CCN(c2ccc(-n3ccnc(SCCc4ccccc4)c3=O)cc2OC)C1 (stereo not drawn) [6-04]
IC50 (human MCH-1 receptor): 25.1 nM
melting point: 113.2 °C

O=c1c(NCCc2ccccc2)nccn1-c1ccc(OCCN2CCCC2)c(Cl)c1 [2-03]
IC50 (human MCH-1 receptor): 31.6 nM
melting point: 120.2 °C

COc1cc(-n2ccnc(SCCc3ccccc3)c2=O)ccc1NC(=O)CN1CCCC1 [6-18]
IC50 (human MCH-1 receptor): 316 nM
melting point: > 300 °C

CC(=O)N1CCN(CCOc2ccc(-n3ccnc(NCCc4ccccc4)c3=O)cc2Cl)CC1 [3-83]
IC50 (human MCH-1 receptor): 50.1 nM
melting point: 121.8 °C

COc1ccc(CCNc2nccn(-c3ccc(OCCN4CCCC4)c(OC)c3)c2=O)cc1Cl [2-42]
IC50 (human MCH-1 receptor): 251 nM

COc1cc(-n2ccnc(SCCc3ccccc3)c2=O)ccc1N1CCC(O)C1 (stereo not drawn) [6-01]
IC50 (human MCH-1 receptor): 39.8 nM

COc1cc(-n2ccnc(NCCOc3ccccc3)c2=O)ccc1N1CCC(O)C1 (stereo not drawn) [1-08]
IC50 (human MCH-1 receptor): 398 nM

COc1ccc(OCCCNc2nccn(-c3ccc(OCCN4CCCC4)c(OC)c3)c2=O)cc1 [2-38]
IC50 (human MCH-1 receptor): 2000 nM

O=c1c(NCCOc2ccccc2)nccn1-c1ccc(C=CCN2CCCC2)cc1 [1-16]
IC50 (human MCH-1 receptor): 100 nM

O=c1c(NCCOc2ccccc2)nccn1-c1ccc(OCCN2CCC3(CC2)OCCO3)cc1 [1-43]
IC50 (human MCH-1 receptor): 200 nM

COc1cc(-n2ccnc(NCCc3ccccc3)c2=O)ccc1OCCN1CCCC(C(N)=O)C1 (stereo not drawn) [3-52]
IC50 (human MCH-1 receptor): 39.8 nM

COc1cc(-n2ccnc(SCCc3ccccc3)c2=O)ccc1N1CCC(O)CC1 [6-11]
IC50 (human MCH-1 receptor): 126 nM

COc1cc(-n2ccnc(NCCc3ccccc3)c2=O)ccc1OCCN1CCOC[C@@H]1C [3-60]
IC50 (human MCH-1 receptor): 63.1 nM

C=CCc1cc(-n2ccnc(NCCOc3ccccc3)c2=O)ccc1OCCN1CCCC1 [1-49]
IC50 (human MCH-1 receptor): 31.6 nM

COc1cc(-n2ccnc(CCCOc3ccccc3)c2=O)ccc1OCCN1CCCC1 [2-08]
IC50 (human MCH-1 receptor): 158 nM

O=c1c(NCCc2ccccc2)nccn1-c1ccc(N2CCN(CCO)CC2)c(Cl)c1 [3-79]
IC50 (human MCH-1 receptor): 63.1 nM

COc1cc(-n2ccnc(NCCc3ccccc3)c2=O)ccc1NCCN1CCOCC1 [3-29]
IC50 (human MCH-1 receptor): 63.1 nM

COc1cc(-n2ccnc(NCCc3ccccc3)c2=O)ccc1OCC1CCCN1C(=O)OC(C)(C)C (stereo not drawn) [3-36]
IC50 (human MCH-1 receptor): 126 nM

COc1cc(-n2ccnc(NCCOc3ccccc3C)c2=O)ccc1OCCN1CCCC1 [2-33]
IC50 (human MCH-1 receptor): 200 nM

COc1cc(-n2ccnc(NCCCOc3ccc(Cl)cc3Cl)c2=O)ccc1OCCN1CCCC1 [2-41]
IC50 (human MCH-1 receptor): 631 nM

COCC(=O)N(C)CCOc1ccc(-n2ccnc(NCCOc3ccccc3)c2=O)cc1OC [1-64]
IC50 (human MCH-1 receptor): 100 nM

CN1CCN(CCOc2ccc(-n3ccnc(NCCc4ccccc4)c3=O)cc2Cl)CC1 [3-82]
IC50 (human MCH-1 receptor): 50.1 nM

COc1cccc(OCCCNc2nccn(-c3ccc(OCCN4CCCC4)c(OC)c3)c2=O)c1 [2-37]
IC50 (human MCH-1 receptor): 398 nM

COc1cc(-n2ccnc(OCCOc3ccccc3)c2=O)ccc1OCCN1CCCC1 [2-14]
IC50 (human MCH-1 receptor): 100 nM

COc1cc(-n2ccnc(NCCOc3ccccc3)c2=O)ccc1OCCCN1CCCC1 [1-75]
IC50 (human MCH-1 receptor): 100 nM

CNC1CCN(c2ccc(-n3ccnc(NCCc4ccccc4)c3=O)cc2OC)C1 (stereo not drawn) [3-12]
IC50 (human MCH-1 receptor): 63.1 nM

COc1cc(-n2ccnc(NCCc3cccc(Br)c3)c2=O)ccc1OCCN1CCCC1 [2-20]
IC50 (human MCH-1 receptor): 31.6 nM

COc1cc(-n2ccnc(NCCc3ccccc3)c2=O)ccc1OCCCN1CCC(F)CC1 [3-72]
IC50 (human MCH-1 receptor): 25.1 nM

CC(=O)N(C)C1CCN(c2ccc(-n3ccnc(NCCOc4ccccc4)c3=O)cn2)C1 (stereo not drawn) [3-88]
IC50 (human MCH-1 receptor): 794 nM

O=c1c(NCCOc2ccccc2)nccn1-c1ccc(OCCN(CCO)Cc2ccccc2)cc1 [1-33]
IC50 (human MCH-1 receptor): 794 nM

COc1cc(-n2ccnc(NCCOc3cccc(Cl)c3)c2=O)ccc1OCCN1CCCC1 [2-30]
IC50 (human MCH-1 receptor): 50.1 nM

COc1cc(-n2ccnc(SCCc3ccccc3)c2=O)ccc1N1CC[C@H](N(C)C)C1 [6-05]
IC50 (human MCH-1 receptor): 12.6 nM

COc1cc(-n2ccnc(NCCOc3ccccc3)c2=O)ccc1N1CCC(N(C)C)C1 (stereo not drawn) [1-10]
IC50 (human MCH-1 receptor): 100 nM

COc1cc(-n2ccnc(NCCc3ccccc3)c2=O)ccc1N1CCC(NC(C)=O)C1 (stereo not drawn) [3-09]
IC50 (human MCH-1 receptor): 63.1 nM

CN(C)CCN1CCc2cc(-n3ccnc(NCCOc4ccccc4)c3=O)ccc21 [3-84]
IC50 (human MCH-1 receptor): 79.4 nM

NC(=O)c1cc(-n2ccnc(NCCOc3ccccc3)c2=O)ccc1OCCN1CCCC1 [1-55]
IC50 (human MCH-1 receptor): 1000 nM

COc1cc(-n2ccnc(SCCc3ccccc3)c2=O)ccc1OC1CCN(C(C)C)C1 (stereo not drawn) [6-16]
IC50 (human MCH-1 receptor): 25.1 nM

O=c1c(NCCOc2ccccc2)nccn1-c1ccc(OCCN2CCCC2)cc1 [1-35]
IC50 (human MCH-1 receptor): 501 nM

CN(C1CCN(c2ccc(-n3ccnc(NCCOc4ccccc4)c3=O)cc2)C1)S(C)(=O)=O (stereo not drawn) [1-05]
IC50 (human MCH-1 receptor): > 10000 nM

COc1cc(-n2ccnc(NCCc3ccccc3)c2=O)ccc1OCCCN1CCCC(CO)C1 (stereo not drawn) [3-71]
IC50 (human MCH-1 receptor): 39.8 nM

CC(C)N(CCOc1ccc(-n2ccnc(NCCOc3ccccc3)c2=O)cc1)C(C)C [1-28]
IC50 (human MCH-1 receptor): 501 nM

COc1cc(-n2ccnc(NCCc3ccccc3)c2=O)ccc1OCCCNC(C)=O [3-66]
IC50 (human MCH-1 receptor): 126 nM

CCN(C)C1CCN(c2ccc(-n3ccnc(NCCc4ccccc4)c3=O)cc2OC)C1 (stereo not drawn) [3-14]
IC50 (human MCH-1 receptor): 50.1 nM

COc1cc(-n2ccnc(NCCOc3ccccc3)c2=O)ccc1N1CCC(N(C)C(=O)C(C)C)C1 (stereo not drawn) [1-11]
IC50 (human MCH-1 receptor): 100 nM

O=c1c(NCCc2ccc(F)cc2)nccn1-c1ccc(OCCN2CCCC2)cc1 [2-15]
IC50 (human MCH-1 receptor): 63.1 nM

COc1cc(-n2ccnc(NCCCOc3ccc(F)cc3)c2=O)ccc1OCCN1CCCC1 [2-18]
IC50 (human MCH-1 receptor): 39.8 nM

COc1cc(-n2ccnc(NCCc3ccccc3)c2=O)ccc1OCCCN(C)C1CC1 [3-68]
IC50 (human MCH-1 receptor): 39.8 nM

COc1cc(-n2ccnc(SCCc3ccccc3)c2=O)ccc1OC1CCN(C)C1 (stereo not drawn) [6-15]
IC50 (human MCH-1 receptor): 15.8 nM

COc1cc(-n2ccnc(NCCCOc3cccc(Cl)c3)c2=O)ccc1OCCN1CCCC1 [2-31]
IC50 (human MCH-1 receptor): 25.1 nM

COc1cc(-n2ccnc(CCOc3ccccc3)c2=O)ccc1OCCN1CCCC1 [2-07]
IC50 (human MCH-1 receptor): 79.4 nM

COc1cc(-n2ccnc(NCCc3ccccc3)c2=O)ccc1NC1CC2COCC(C1)N2 (stereo not drawn) [3-27]
IC50 (human MCH-1 receptor): 79.4 nM

COc1cc(-n2ccnc(NCCOc3ccccc3)c2=O)ccc1/C=C/CN1CCOCC1 [1-18]
IC50 (human MCH-1 receptor): 39.8 nM

CN(C)CCNc1ccc(-n2ccnc(NCCOc3ccccc3)c2=O)cc1 [1-19]
IC50 (human MCH-1 receptor): 100 nM

COc1cccc(C2CCN(c3nccn(-c4ccc(OCCN5CCCC5)c(OC)c4)c3=O)C2)c1 (stereo not drawn) [4-07]
IC50 (human MCH-1 receptor): 631 nM

COc1cc(-n2ccnc(NCCOc3ccccc3)c2=O)ccc1OCCCN1CCCCC1 [1-77]
IC50 (human MCH-1 receptor): 50.1 nM

COc1cc(-n2ccnc(SCCc3cccc(Cl)c3)c2=O)ccc1OCCN1CCCC1 [2-25]
IC50 (human MCH-1 receptor): 126 nM

COc1cc(-n2ccnc(NCCc3cccc(Cl)c3)c2=O)ccc1OCCN1CCCC1 [2-23]
IC50 (human MCH-1 receptor): 50.1 nM

CC(C)C(=O)N(C)C1CCN(c2ccc(-n3ccnc(NCCOc4ccccc4)c3=O)cc2)C1 (stereo not drawn) [1-03]
IC50 (human MCH-1 receptor): 39.8 nM

O=c1c(NCCOc2ccccc2)nccn1-c1ccc(OCCN2CCC(F)CC2)cc1 [1-39]
IC50 (human MCH-1 receptor): 200 nM

CCCN(C)CCOc1ccc(-n2ccnc(NCCOc3ccccc3)c2=O)cc1 [1-24]
IC50 (human MCH-1 receptor): 158 nM

COc1cc(-n2ccnc(NCCc3ccccc3)c2=O)ccc1NC1CCNC1 (stereo not drawn) [3-24]
IC50 (human MCH-1 receptor): 200 nM

COc1cc(-n2ccnc(NCCc3ccccc3)c2=O)ccc1OCCN1CCC(F)CC1 [3-50]
IC50 (human MCH-1 receptor): 20 nM

COc1cc(-n2ccnc(NCCOc3ccccc3)c2=O)ccc1OCCN1CCCC1 (as salt: HCl) [1-67]
melting point: 198.7 °C

COc1cc(-n2ccnc(NCCc3ccccc3)c2=O)ccc1OCCN1CC[C@@H](F)C1 [3-47]
IC50 (human MCH-1 receptor): 63.1 nM

COc1cc(-n2ccnc(NCCOc3ccccc3)c2=O)ccc1OCCN1CCC(F)CC1 [1-70]
IC50 (human MCH-1 receptor): 12.6 nM

COc1cc(-n2ccnc(NCCOc3ccccc3)c2=O)ccc1OCCCN1CCC(F)(F)CC1 [1-79]
IC50 (human MCH-1 receptor): 39.8 nM

CN(CCOc1ccc(-n2ccnc(NCCOc3ccccc3)c2=O)cc1)CCc1ccccc1 [1-32]
IC50 (human MCH-1 receptor): 794 nM

COc1cc(-n2ccnc(NCCc3ccc(F)cc3)c2=O)ccc1OCCN1CCCC1 [2-16]
IC50 (human MCH-1 receptor): 25.1 nM

NC(=O)C1CCN(CCOc2ccc(-n3ccnc(NCCOc4ccccc4)c3=O)cc2)CC1 [1-41]
IC50 (human MCH-1 receptor): 631 nM

CCCC(=O)N(C)CCOc1ccc(-n2ccnc(NCCOc3ccccc3)c2=O)cc1 [1-31]
IC50 (human MCH-1 receptor): 316 nM

CCCN1CCC(Nc2ccc(-n3ccnc(NCCc4ccccc4)c3=O)cc2OC)C1 (stereo not drawn) [3-26]
IC50 (human MCH-1 receptor): 39.8 nM
